Active and inactive are the calls of the source.
Tests used:
Cannabinoid receptor 1 [1] = target: T1, Cannabinoid receptor 1 (Homo sapiens, UniProt P21554); assay: Displacement of [3H]-CP55,940 from human CB1 receptor after 60 mins by microscintillation counting analysis
Cannabinoid receptor 2 [2] = target: T2, Cannabinoid receptor 2 (Homo sapiens, UniProt P34972); assay: Displacement of [3H]-CP55,940 from human CB2 receptor after 60 mins by microscintillation counting analysis
Homo sapiens = species on record: Homo sapiens; assay: Selectivity ratio of EC50 for human CB1 receptor to EC50 for human CB2 receptor
Cannabinoid receptor 1 [3] = target: T1, Cannabinoid receptor 1; assay: Agonist activity at human CB1 receptor after 4 hrs by luciferase reporter gene assay; format: functional
Cannabinoid receptor 1 [4] = target: T1, Cannabinoid receptor 1; assay: Agonist activity at human CB1 receptor after 4 hrs by luciferase reporter gene assay relative to control; format: functional
Cannabinoid receptor 2 [5] = target: T2, Cannabinoid receptor 2; assay: Agonist activity at human CB2 receptor after 4 hrs by luciferase reporter gene assay relative to control; format: functional
Cannabinoid receptor 2 [6] = target: T2, Cannabinoid receptor 2; assay: Agonist activity at human CB2 receptor after 4 hrs by luciferase reporter gene assay; format: functional
Mus musculus = assay: Analgesic activity in NMRI mouse assessed as inhibition of acetic acid-induced writhing at 30 mg/kg, po measured for 30 mins relative to vehicle-treated control; format: functional; details: for inhibition in vivo at 30 mg/kg: 0.5 h
Cannabinoid receptor 1 [7] = target: Cannabinoid receptor 1 (Rattus norvegicus, UniProt P20272); assay: Displacement of [3H]-CP55,940 from rat CB1 receptor after 60 mins by microscintillation counting analysis
Sequence of Cannabinoid receptor 1 (Rattus norvegicus, UniProt P20272) (P20272 whole entry): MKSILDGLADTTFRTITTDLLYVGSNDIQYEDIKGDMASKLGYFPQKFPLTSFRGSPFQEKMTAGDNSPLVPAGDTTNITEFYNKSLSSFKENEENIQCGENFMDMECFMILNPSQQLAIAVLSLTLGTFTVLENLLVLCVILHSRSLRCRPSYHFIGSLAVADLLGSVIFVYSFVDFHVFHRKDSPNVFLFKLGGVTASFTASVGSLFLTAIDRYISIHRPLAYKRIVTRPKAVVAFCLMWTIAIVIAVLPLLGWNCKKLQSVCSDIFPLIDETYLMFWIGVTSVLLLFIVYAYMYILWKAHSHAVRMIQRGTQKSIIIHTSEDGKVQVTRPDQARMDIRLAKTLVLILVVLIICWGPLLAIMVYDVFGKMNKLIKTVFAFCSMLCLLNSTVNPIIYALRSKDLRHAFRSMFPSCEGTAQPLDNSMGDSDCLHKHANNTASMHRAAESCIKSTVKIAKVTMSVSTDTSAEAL

[8] = Half life in mouse liver microsomes; format: ADME, Microsome
Cannabinoid receptor 2 [9] = target: T3, Cannabinoid receptor 2 (Rattus norvegicus, UniProt Q9QZN9); assay: Displacement of [3H]-CP55,940 from rat CB2 receptor after 60 mins by microscintillation counting analysis
T3 sequence (Q9QZN9 whole entry): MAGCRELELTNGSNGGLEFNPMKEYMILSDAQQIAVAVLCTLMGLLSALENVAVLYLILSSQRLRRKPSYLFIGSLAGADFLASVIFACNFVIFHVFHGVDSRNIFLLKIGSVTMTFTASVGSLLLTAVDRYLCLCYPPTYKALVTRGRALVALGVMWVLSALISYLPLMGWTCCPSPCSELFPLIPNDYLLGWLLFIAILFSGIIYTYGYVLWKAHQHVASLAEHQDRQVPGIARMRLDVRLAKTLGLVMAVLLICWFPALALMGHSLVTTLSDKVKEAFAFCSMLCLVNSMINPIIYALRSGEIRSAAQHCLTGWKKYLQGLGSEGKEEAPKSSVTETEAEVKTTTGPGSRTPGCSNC

[10] = Half life in rat liver microsomes; format: ADME, Microsome
[11] = target: Cannabinoid receptor 2 (Mus musculus) (UniProt P47936); assay: Agonist activity at mouse CB2 receptor after 4 hrs by luciferase reporter gene assay relative to control; format: functional
Sequence of Cannabinoid receptor 2 (Mus musculus) (P47936 whole entry): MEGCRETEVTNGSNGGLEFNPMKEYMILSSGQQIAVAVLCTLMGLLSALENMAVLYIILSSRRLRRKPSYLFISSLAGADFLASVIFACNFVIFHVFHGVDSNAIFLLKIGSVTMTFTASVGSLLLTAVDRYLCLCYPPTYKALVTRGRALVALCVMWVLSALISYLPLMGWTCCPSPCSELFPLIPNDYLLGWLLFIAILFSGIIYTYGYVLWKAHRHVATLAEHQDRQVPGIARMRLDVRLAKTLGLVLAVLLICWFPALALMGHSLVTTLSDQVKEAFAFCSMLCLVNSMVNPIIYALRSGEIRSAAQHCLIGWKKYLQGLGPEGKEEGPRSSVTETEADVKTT

Cannabinoid receptor 2 [12] = target: Cannabinoid receptor 2 (Mus musculus, UniProt P47936); assay: Agonist activity at mouse CB2 receptor after 4 hrs by luciferase reporter gene assay; format: functional
Sequence of Cannabinoid receptor 2 (Mus musculus, UniProt P47936) (P47936 whole entry): as above

Rattus norvegicus [13] = assay: Analgesic activity in carrageenan-induced Sprague-Dawley rat allodynia model assessed as increase in paw withdrawal threshold at 30 to 100 mg/kg, po after 30 mins; format: functional, organism-based
Rattus norvegicus [14] = assay: Analgesic activity in carrageenan-induced Sprague-Dawley rat allodynia model assessed as increase in paw withdrawal threshold at 10 to 30 mg/kg, po after 90 mins; format: functional, organism-based
Rattus norvegicus [15] = assay: Analgesic activity in carrageenan-induced Sprague-Dawley rat allodynia model assessed as effect on paw withdrawal threshold at 10 mg/kg, po after 30 mins; format: functional, organism-based; parameters: dose 10 mg/kg
[16] = Oral bioavailability in rat at 3 mg/kg; format: ADME, organism-based; details: in vivo
[17] = Tmax in rat at 3 mg/kg, po; format: ADME, organism-based; parameters: dose 3 mg/kg, route oral; details: in vivo
[18] = Clearance in rat at 1 mg/kg, iv; format: ADME, organism-based; parameters: dose 1 mg/kg, route intravenous; details: in vivo
[19] = AUC in rat at 1 mg/kg, iv; format: ADME, organism-based; parameters: dose 1 mg/kg, route intravenous; details: plasma
[20] = Half life in human liver microsomes; format: ADME, Microsome
[21] = Volume of distribution at steady state in rat at 1 mg/kg, iv; format: ADME, organism-based; parameters: dose 1 mg/kg, route intravenous; details: in vivo, read-out: Vdss
[22] = Half life in rat at 3 mg/kg, po; format: ADME, organism-based; parameters: dose 3 mg/kg, route oral; details: in vivo
[23] = Half life in rat at 1 mg/kg, iv; format: ADME, organism-based; parameters: dose 1 mg/kg, route intravenous; details: in vivo

T2 sequence (P34972 whole entry): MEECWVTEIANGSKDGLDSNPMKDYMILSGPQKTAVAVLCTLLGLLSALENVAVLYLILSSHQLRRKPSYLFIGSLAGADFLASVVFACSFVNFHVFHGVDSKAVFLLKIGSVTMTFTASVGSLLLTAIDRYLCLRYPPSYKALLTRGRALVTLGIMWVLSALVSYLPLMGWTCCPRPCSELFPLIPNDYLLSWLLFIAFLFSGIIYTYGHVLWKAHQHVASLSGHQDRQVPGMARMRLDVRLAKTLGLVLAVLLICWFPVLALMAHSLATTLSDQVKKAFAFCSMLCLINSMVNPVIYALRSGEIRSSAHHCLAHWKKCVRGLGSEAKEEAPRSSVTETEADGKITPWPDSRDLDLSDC
T1 sequence (P21554 whole entry): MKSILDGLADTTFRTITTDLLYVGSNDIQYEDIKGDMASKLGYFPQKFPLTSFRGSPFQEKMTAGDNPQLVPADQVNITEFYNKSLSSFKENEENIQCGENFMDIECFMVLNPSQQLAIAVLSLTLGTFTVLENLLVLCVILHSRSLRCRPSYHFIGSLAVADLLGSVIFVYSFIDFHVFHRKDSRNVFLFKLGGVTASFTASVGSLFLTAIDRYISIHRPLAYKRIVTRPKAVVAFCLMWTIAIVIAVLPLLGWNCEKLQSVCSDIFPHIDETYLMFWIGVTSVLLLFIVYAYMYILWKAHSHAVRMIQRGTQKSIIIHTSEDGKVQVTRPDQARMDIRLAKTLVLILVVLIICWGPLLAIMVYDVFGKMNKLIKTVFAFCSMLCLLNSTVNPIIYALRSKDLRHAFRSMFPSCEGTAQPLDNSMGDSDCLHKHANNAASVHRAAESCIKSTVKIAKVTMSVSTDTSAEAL

Row | Structure (SMILES) | Ki (Cannabinoid receptor 1 [1]) [nM] | Ki (Cannabinoid receptor 2 [2]) [nM] | Ratio EC50 (Homo sapiens) | EC50 (Cannabinoid receptor 1 [3]) [nM] | Efficacy (Cannabinoid receptor 1 [4]) [%] | Efficacy (Cannabinoid receptor 2 [5]) [%] | EC50 (Cannabinoid receptor 2 [6]) [nM] | inhibition (Mus musculus) | Ki (Cannabinoid receptor 1 [7]) [nM] | half-life [8] [min] | Ki (Cannabinoid receptor 2 [9]) [nM] | half-life [10] [min] | inhibition in vivo at 30 mg/kg (Mus musculus) [%] | further results
1 | COCCNC(=O)c1c(NC(=O)c2c(F)cccc2C(F)(F)F)sc2c1CCOC2 | > 30000 | 904 | 385 | 9360 | 58 | 96 | 24 | inactive | > 30000 | 21 | 1700 | 13.6 | – | –
2 | O=C(Nc1sc2c(c1C(=O)N1CCOCC1)CCCC2)c1ccccc1Cl | – | – | 25 | 251 | 77 | 95 | 10 | – | – | – | – | – | – | Efficacy [11]: 107%; EC50 (Cannabinoid receptor 2 [12]): 50 nM
3 | COCCNC(=O)c1c(NC(=O)c2ccccc2C(F)(F)F)sc2c1CCOC2 | > 30000 | 999 | 525 | 8710 | 45 | 93 | 17 | inactive | > 30000 | 19.8 | 2540 | 17.8 | – | –
4 | O=C(Nc1sc2c(c1C(=O)N1CCCCC1)CCOC2)c1ccccc1OC(F)(F)F | 19400 | 347 | 98 | 925 | 85 | 101 | 9.5 | inactive | 22600 | 10 | 2130 | 3.52 | – | –
5 | O=C(Nc1sc2c(c1C(=O)N1CC(F)(F)C1)CCOC2)c1ccccc1C(F)(F)F | 7190 | 81.5 | 118 | 296 | 84 | 106 | 2.5 | – | > 30000 | 37.4 | 594 | 8 | 15 | –
6 | COC1CN(C(=O)c2c(NC(=O)c3ccccc3C(F)(F)F)sc3c2CCOC3)C1 | > 30000 | 899 | 387 | 5960 | 53 | 98 | 15 | – | > 30000 | 37.3 | 3110 | 50.4 | 15 | –
7 | O=C(Nc1sc2c(c1C(=O)N1CC(F)(F)C1)CCOC2)c1ccccc1OC(F)(F)F | > 30000 | 240 | 420 | 1970 | 104 | 104 | 4.7 | inactive | > 30000 | 25.5 | 4620 | 6.4 | – | –
8 | O=C(Nc1sc2c(c1C(=O)N1CCCCC1)CCOC2)c1ccccc1C(F)(F)F | 11700 | 241 | 204 | 607 | 93 | 99 | 3 | – | 15100 | 15.5 | 1610 | 5.28 | 32 | –
9 | O=C(Nc1sc2c(c1C(=O)N1CC(F)(F)C1)CCOC2)c1c(F)cccc1C(F)(F)F | 11100 | 444 | 122 | 798 | 83 | 96 | 6.5 | – | 13500 | 51.3 | 630 | 14.2 | 38 | Activity (Rattus norvegicus [13]): Active; Activity (Rattus norvegicus [14]): Active; Activity (Rattus norvegicus [15]): inactive; bioavailability [16]: 8%; Tmax [17]: 60 min; clearance [18]: 102 mL/min/kg; AUC [19]: 165 ng·h/mL; half-life [20]: 25.4 min; Vd [21]: 3.61 L/kg; half-life [22]: 534 min; half-life [23]: 30 min
10 | CC1OCc2sc(NC(=O)CC(C)(C)C)c(C(=O)N3CC(F)(F)C3)c21 (centres undefined) | – | – | 36 | 217 | 94 | 105 | 6 | – | – | – | – | – | – | –
11 | COC1CN(C(=O)c2c(NC(=O)c3ccccc3OC(F)(F)F)sc3c2CCOC3)C1 | – | – | 37 | 1420 | 45 | 100 | 38 | – | – | – | – | – | – | –
